According to patent publication US8716437B2 (priority 2007, dated 2014):
pIC50: −log10 of the molar value.

Experiments:
[1] = biological target: T1, BK (Mus musculus, UniProt Q08460); assay: Two electrode voltage clamp, Xenopus oocytes, BK; type: cell-based
T1 construct: expressed in transfected cells; host or cells: Xenopus laevis oocytes (cRNA injection)
Experimental: (§1) To examine the effect of mokatoxin-1 on activity of potassium ion channels, cDNA encoding Rattus Kv1.1 (NCBI accession number NM_173095), Rattus Kv1.2 (NM_012970), Homo Kv1.3 (NM_002232), or Mus BK (NM_010610) were subcloned into oocyte expression vectors based on PCR3.1 and pGEM. cRNA synthesis was performed with T7 polymerase and the mMessageMachine Kit (Ambion, Austin, Tex.) according to manufacturers instructions. cRNA concentrations were determined spectroscopically. For two electrode voltage clamp recordings oocytes were extracted from Xenopus laevis and defoliculated with Collagenase Type 2 (Worthington, Lakewood, N.J.). Oocytes were maintained in ND91 solution containing 2 mM KCl, 91 mM NaCl, 1 mM MgCl2, 1.8 mM CaCl2, and 5 mM HEPES, pH 7.5, supplemented with 1% Penicillin/Streptomycin (Cellgro, Hemdon, Va.) and 0.1% Gentamycin sulfate (Gibco, Grand Island, N.Y.)) at 16° C. Stage V and VI oocytes were injected with 8 pg to 4 ng cRNA, and currents recorded 1 to 4 days later.
(§2) For dose-response measurements of toxin block of Kv1.1, Kv1,2, or Kv1.3 peak currents were recorded during a 500 ms step to 0 mV from a holding voltage of −100 mV, followed by a 200 ms step to −135 mV every 30 s. To determine the kinetics of toxin block oocytes were held at −100 mV and stepped to the test voltage of 0 mV for 100 ms followed by a 200 ms duration step to −135 mV every 2 s. BK currents were recorded during a 50 ms step to +60 mV from a holding voltage of −80 mV, followed by a 40 ms step to −100 mV every 3 s. The perfusion solution contained 2 mM KCl, 96 mM NaCl, 1 mM MgCl2, 1.8 mM CaCl2, 5 mM HEPES, pH 7.5 and 0.1% fatty acid ultra-free BSA fraction V (Roche Diagnostics Corporation, Indianapolis, Ind.). Data acquisition and processing was performed with an oocyte clamp OC-725B (Warner Instruments Corporation, Hamden, Conn.), pCLAMP (Axon, Sunnyvale, Calif.), IGOR Pro (WaveMetrics, Lake Oswego, Oreg.), and Origin6.1 (OriginLab Corporation, Northampton, Mass.) softwares. The equilibrium dissociation rates (KD) for block of Kv1.1, Kv1.2, and Kv1.3 by mokatoxin-1 were determined by fitting the dose-response data and kon and koff were calculated as described by Goldstein and Miller, 1993 (Biophys J. 1993 65 (4):1613-1619).

[2] = biological target: T2, Kv1.2 (Rattus norvegicus, UniProt P63142); assay: Two electrode voltage clamp, Xenopus oocytes, Kv1.2; type: cell-based
T2 construct: expressed in transfected cells; host or cells: Xenopus laevis oocytes (cRNA injection)
Experimental: as §1, §2

[3] = biological target: Kv1.3 (Homo sapiens, UniProt P22001); assay: Phage panning on live cells (HEK, COS) expressing Kv1.3 channels; type: binding; set-up: expressed in transfected cells; host or cells: HEK (HEK293) and COS cells; conditions: for enrichment of KTX, Kv1.3 transfected vs. vector cells: 5×10^11 phagemids; for OUTPUT KTX (%): mixture of KTX and nonspecific phages, one round of panning
Excerpt: In another example, receptors may be expressed in cells. For example, cells may be stably or transiently transfected with one or more receptors can be utilized as expressed in native tissues (Clackson and Lowman, Phage display. Oxford University Press, 2004; Barbas et al., Phage display. A laboratory manual. Cold Spring Harbor Laboratory Press, 2001; Sambrook et al., Molecular Cloning: A Laboratory Manual. Vols 1-3. Cold Spring Harbor Laboratory Press, 1989). In one example, HEK (mammalian human embryonic kidney) and COS cells expressing wild-type Kv1.3 or Kv1.3-PDZ domain chimera were employed, the latter target allowing a “double” panning (e.g., as a control or to enhance binding affinity) using phages expressing kaliotoxin-1 and/or PDZ-binder domain.
Panning may be performed by the binding of ligands to the receptors, followed by washes and ligand recovery. In one example, panning is performed according to standard methods of phage display (Clackson and Lowman, Phage display. Oxford University Press, 2004; Barbas et al., Phage display. A laboratory manual. Cold Spring Harbor Laboratory Press, 2001). Panning may be repeated until the desired enrichment is achieved. In addition, libraries can be pre-depleted on surfaces or cells that contain no receptors or on a receptor where the putative ligand receptor domain may be directly or indirectly altered. Additionally, any and all conditions of panning may be varied, altered or changed to achieve optimal results, such as the isolation of a specific ligand. Panning variations include, but are not limited to, the presence of competing ligand(s), presence of excess target(s), length and temperature of binding, pre-absorption of the ligand library on one or more different receptor(s) or cells or surfaces, composition of binding solution (e.g., ionic strength), stringency of washing, and recovery procedures. Phages recovered from panning may be processed for further rounds of panning, functional analysis, and/or sequencing/genotyping to deduce the resulting ligands' amino acid sequence or biological properties (Clackson and Lowman, Phage display. Oxford University Press, 2004; Barbas et al., Phage display. A laboratory manual. Cold Spring Harbor Laboratory Press, 2001).
5×10^11 phagemids were added to the cell cultures in “B.”
A library of KTX-like ligands, with a calculated diversity of greater than 11,000, was created de novo. The library comprised approximately 8% KTX-like ligands and 92% non-KTX-like ligands. The library of ligands was screened on Kv1.3 receptors expressed in HEK and COS cells.
Transfection efficiency was monitored with cotransfection of gene encoding for the green fluorescence protein (GFP) and observing the fluorescence after 1-2 days following transfection.
KTX and mokatoxin-1 are Kv1.3 specific scorpion toxins. […] Following incubation of the cells with the phages, cells were subjected to wash to remove the unbound/weakly bound phages. The remaining bound phages were eluted from the cells and transformed into XL1 E. coli, and plated onto LB plates with antibiotic selecting for the phagemids.

[4] = HEK cells, kaliotoxin-1-phage 1 out of 10^10 phage

Chain of Kv1.3 (P22001 whole entry): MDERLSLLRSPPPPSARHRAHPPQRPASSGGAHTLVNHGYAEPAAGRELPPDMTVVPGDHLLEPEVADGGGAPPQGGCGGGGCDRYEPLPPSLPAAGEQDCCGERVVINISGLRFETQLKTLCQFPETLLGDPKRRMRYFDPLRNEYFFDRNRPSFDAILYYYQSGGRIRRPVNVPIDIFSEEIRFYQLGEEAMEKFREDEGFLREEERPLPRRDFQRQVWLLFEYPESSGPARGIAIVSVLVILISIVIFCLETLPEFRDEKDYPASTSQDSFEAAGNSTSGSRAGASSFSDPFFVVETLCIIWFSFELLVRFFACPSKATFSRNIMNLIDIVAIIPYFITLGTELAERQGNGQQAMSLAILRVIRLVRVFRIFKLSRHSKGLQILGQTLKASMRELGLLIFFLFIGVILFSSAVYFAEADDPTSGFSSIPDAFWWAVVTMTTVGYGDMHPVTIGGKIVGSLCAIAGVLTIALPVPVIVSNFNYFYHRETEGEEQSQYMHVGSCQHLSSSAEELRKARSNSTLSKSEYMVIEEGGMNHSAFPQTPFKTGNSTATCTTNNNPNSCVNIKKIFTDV
T1 sequence (Q08460 whole entry): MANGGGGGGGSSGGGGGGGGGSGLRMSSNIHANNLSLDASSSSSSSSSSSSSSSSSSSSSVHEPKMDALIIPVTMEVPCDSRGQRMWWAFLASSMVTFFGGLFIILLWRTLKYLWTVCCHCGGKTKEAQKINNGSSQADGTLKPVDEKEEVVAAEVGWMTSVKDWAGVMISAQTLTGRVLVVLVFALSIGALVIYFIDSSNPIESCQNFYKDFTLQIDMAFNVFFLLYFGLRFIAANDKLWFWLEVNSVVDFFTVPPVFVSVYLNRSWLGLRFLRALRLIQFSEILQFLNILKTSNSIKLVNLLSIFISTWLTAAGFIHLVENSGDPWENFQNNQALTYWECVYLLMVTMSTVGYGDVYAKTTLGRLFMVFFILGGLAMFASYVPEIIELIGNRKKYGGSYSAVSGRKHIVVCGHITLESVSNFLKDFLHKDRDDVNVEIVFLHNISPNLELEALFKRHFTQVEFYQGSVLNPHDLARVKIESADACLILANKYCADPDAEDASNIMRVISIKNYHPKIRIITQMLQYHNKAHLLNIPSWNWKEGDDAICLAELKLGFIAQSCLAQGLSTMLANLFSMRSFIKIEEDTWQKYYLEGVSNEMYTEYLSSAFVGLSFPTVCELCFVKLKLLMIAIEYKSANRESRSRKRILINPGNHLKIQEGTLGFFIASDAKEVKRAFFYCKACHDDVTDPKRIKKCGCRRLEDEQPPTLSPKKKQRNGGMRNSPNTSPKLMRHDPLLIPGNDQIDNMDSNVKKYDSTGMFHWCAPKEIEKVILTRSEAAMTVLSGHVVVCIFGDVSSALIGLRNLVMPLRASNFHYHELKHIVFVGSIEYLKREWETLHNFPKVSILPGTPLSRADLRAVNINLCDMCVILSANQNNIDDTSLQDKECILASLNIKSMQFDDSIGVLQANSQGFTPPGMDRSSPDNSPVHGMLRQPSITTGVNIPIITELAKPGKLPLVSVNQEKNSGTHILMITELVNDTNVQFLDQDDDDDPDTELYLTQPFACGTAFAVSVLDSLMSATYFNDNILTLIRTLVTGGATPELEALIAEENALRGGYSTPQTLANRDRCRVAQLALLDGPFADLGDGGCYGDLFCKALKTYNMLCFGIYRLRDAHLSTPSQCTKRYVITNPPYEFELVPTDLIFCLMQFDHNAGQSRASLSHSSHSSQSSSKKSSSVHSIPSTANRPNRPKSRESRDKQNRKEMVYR
T2 sequence (P63142 whole entry): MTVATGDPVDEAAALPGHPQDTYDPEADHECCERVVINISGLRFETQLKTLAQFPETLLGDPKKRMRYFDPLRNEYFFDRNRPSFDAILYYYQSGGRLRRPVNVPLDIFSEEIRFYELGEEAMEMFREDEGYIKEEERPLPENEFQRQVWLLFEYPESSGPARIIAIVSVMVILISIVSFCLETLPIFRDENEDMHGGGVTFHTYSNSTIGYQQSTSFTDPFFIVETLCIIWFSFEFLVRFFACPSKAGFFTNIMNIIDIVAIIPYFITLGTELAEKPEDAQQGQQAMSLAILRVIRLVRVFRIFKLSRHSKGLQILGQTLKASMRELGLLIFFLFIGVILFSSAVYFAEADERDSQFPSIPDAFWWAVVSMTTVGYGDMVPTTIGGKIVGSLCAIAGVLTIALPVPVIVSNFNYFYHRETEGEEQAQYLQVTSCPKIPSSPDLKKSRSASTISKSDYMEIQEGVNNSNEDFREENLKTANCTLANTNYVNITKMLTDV

Structure (SMILES): CC[C@H](C)[C@H](NC(=O)[C@H](CCC(=O)O)NC(=O)[C@@H](NC(=O)CN)C(C)C)C(=O)N[C@@H](CC(N)=O)C(=O)N[C@H](C(=O)N[C@@H](CCCCN)C(=O)N[C@H]1CSSC[C@@H]2NC(=O)[C@H](CCCCN)NC(=O)CNC(=O)[C@H](Cc3ccccc3)NC(=O)[C@H](CCCNC(=N)N)NC(=O)[C@H](CCSC)NC(=O)CNC(=O)[C@H](C)NC(=O)[C@H](CC(=O)O)NC(=O)[C@H](CCCCN)NC(=O)[C@@H]3CSSC[C@@H](C(=O)N[C@H](C(=O)N4CCC[C@H]4C(=O)N[C@@H](CCCCN)C(=O)O)[C@@H](C)O)NC(=O)[C@H](Cc4c[nH]cn4)NC(=O)[C@H](CSSC[C@H](NC(=O)[C@H](CCC(N)=O)NC(=O)[C@@H]4CCCN4C(=O)[C@H](CO)NC(=O)CNC(=O)[C@H](CO)NC1=O)C(=O)N[C@@H](CC(C)C)C(=O)N[C@@H](CCCCN)C(=O)N1CCC[C@H]1C(=O)N3)NC(=O)[C@H](CCCCN)NC(=O)[C@H](CCCNC(=N)N)NC(=O)[C@H](CC(N)=O)NC(=O)[C@H](CCSC)NC2=O)C(C)C [KTX, kaliotoxin-1]
- pIC50 [1]: ~8.30
- Koff [s]^−1 ([1]; mBK): 0.0211 ± 0.0008 [s]^−1
- Kon [M · s]^−1 ([1]; mBK): 21 · 10^3 ± 4 · 10^3 [M · s]^−1
- pIC50 [2]: 8.85
- Koff [s]^−1 ([2]; rKv1.2): 0.21 ± 0.01 [s]^−1
- Kon [M · s]^−1 ([2]; rKv1.2): 13 · 10^6 ± 3 · 10^6 [M · s]^−1
- enrichment of KTX, Kv1.3 transfected vs. vector cells ([3]; COS cells): ~10 fold
- enrichment of KTX, Kv1.3 transfected vs. vector cells ([3]; HEK cells): ~20 fold
- 2nd round (n = 20) % [3, 4]: 0%
- 3rd round (n = 12) % [3, 4]: 58%
- OUTPUT KTX (%) ([3]; input ratio 1/99, actual 5/95 (n = 20)): 26 (n = 20) %
- OUTPUT KTX (%) ([3]; input ratio 10/90, actual 0/100 (n = 10)): 22 (n = 18) %
- OUTPUT KTX (%) ([3]; input ratio 10/90, actual 7/93 (n = 30)): 30 (n = 30) %
